Tested on: lactic acid bacteria
Experiment: Lactic acid bacteria count of Taiwanese style sausage during storage
Settings: second group, 25% sodium lactate; at 4 and 8 weeks storage at 15° C.
Method: The each group of sausages prepared from example 4 was packed in equal with vacuum package and stored at 15° C. for 8 weeks. Taking the amounts of sausages from the each group in 0, 1, 2, 3, 4 and 8 weeks were separately packed into sterile bags with sterile water and homogenized with a stomacher (Lab-Blender 400, England) for 30 second to have dilutions of the each group's sausages at different storage times for further microbiological analyzing.
The dilutions of the each group's sausage at different storage times were separately poured into a petri dish, added first layer of MRS agar into the each petri dish and then mixed completely. The second layer of MRS agar was poured on the first layer of MRS agar to produce an anaerobic condition then mixed and incubated at 37° C. for 48 hours in an anaerobic jar.

For `CC(O)C(=O)[O-].[Na+]` (stereo not shown) [sodium lactate], the “lactic acid bacteria count” value was 7.52 log CFU/g.

From US20140199420A1, “USES OF TOONA SINENSIS EXTRACT” (National Chung Hsing University, priority 2013, published 2014)
